The text below walks through data of ChEMBL document CHEMBL4177539, “Discovery of N-((3R,4R)-4-Fluoro-1-(6-((3-methoxy-1-methyl-1H-pyrazol-4-yl)amino)-9-methyl-9H-purin-2-yl)pyrrolidine-3-yl)acrylamide (PF-06747775) through Structure-Based Drug Design: A High Affinity Irreversible Inhibitor Targeting Oncogenic EGFR Mutants with Selectivity over Wild-Type EGFR” (J Med Chem, 2017).

Some results are limits rather than exact numbers.

Series [1] can be described thus: physchem. The settings on record: octanol/water.
The species entered for the next series is Homo sapiens. Briefly: Selectivity index, ratio of IC50 for wild-type EGFR autophosphorylation in human A549 cells to IC50 for EGFR T790M/L858R double mutant autophosphorylation in human H1975 cells. Format: cell-based.
The target in series [2] is Epidermal growth factor receptor (Homo sapiens, UniProt P00533).
Series [3] concerns the target Epidermal growth factor receptor (Homo sapiens, UniProt P00533, EX19DEL/T790M).
Series [4] has as its target Epidermal growth factor receptor (Homo sapiens, UniProt P00533, EX19DEL).
Series [5] is described as follows: in vitro. The settings on record: human, liver microsomes. (Liver microsomes are vesicles of endoplasmic reticulum, rich in cytochrome P450 enzymes.)
Series [6] in a line: in vitro. The following applies: dog, MDCK.
Series [7] in a line: physchem. The following applies: phosphate buffer with glutathione, pH 7.4.
The subject of a further series is Hepatocyte. The following applies: human, hepatocytes, 1 µM.

Epidermal growth factor receptor (Homo sapiens, UniProt P00533), sequence (P00533 whole entry): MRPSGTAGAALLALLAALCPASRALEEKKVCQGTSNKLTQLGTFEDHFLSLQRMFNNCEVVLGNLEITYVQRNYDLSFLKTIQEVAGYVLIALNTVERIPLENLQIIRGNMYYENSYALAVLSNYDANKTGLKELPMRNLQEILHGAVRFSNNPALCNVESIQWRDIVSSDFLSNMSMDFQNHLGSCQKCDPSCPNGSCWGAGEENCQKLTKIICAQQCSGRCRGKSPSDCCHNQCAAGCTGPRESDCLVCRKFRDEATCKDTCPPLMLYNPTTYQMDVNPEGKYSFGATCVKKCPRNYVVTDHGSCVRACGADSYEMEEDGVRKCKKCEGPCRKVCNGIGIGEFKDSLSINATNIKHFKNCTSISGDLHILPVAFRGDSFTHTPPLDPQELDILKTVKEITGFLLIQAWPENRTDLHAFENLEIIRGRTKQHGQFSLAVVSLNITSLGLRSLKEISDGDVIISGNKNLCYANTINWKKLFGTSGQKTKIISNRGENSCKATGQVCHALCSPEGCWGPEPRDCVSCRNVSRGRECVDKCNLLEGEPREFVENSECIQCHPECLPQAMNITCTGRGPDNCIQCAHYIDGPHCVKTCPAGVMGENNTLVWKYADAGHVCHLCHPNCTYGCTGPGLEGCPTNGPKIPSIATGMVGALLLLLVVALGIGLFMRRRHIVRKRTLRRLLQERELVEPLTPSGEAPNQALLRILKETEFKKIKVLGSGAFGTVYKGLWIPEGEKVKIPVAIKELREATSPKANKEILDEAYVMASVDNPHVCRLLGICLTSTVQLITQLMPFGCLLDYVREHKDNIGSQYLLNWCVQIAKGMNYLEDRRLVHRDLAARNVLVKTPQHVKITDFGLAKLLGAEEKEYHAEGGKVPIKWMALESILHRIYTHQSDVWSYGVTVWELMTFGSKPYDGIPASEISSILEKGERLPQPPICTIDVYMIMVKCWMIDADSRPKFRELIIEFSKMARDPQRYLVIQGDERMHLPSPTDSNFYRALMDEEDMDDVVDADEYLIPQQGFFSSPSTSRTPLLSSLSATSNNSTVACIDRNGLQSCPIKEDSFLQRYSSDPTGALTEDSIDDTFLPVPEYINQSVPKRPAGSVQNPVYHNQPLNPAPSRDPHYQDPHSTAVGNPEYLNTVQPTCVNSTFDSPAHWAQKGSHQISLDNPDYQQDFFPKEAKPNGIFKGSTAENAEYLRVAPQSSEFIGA
Epidermal growth factor receptor (Homo sapiens, UniProt P00533, EX19DEL), sequence (P00533 whole entry, looked up, stated change not applied): as the sequence (P00533 whole entry) above
Epidermal growth factor receptor (Homo sapiens, UniProt P00533, EX19DEL/T790M), sequence (P00533 whole entry, looked up, stated change not applied): as the sequence (P00533 whole entry) above

With `C=CC(=O)N[C@@H]1CCN(c2nc(Nc3ccc(N4CCN(C)CC4)cc3)c3ncn(C(C)C)c3n2)C1`, the logD in the series “physchem [1]” amounted to 2.
For the compound `C=CC(=O)N[C@H]1CCN(c2nc(Nc3ccc(N4CCN(C)CC4)cc3)c3ncn(C(C)C)c3n2)C1`, the Ratio IC50 in the series listed under Homo sapiens is 15. In “physchem [1]”, this compound yielded a logD of 2.2.
Take `C=CC(=O)N1CC[C@H](Nc2nc(Nc3ccc(N4CCN(C)CC4)cc3)c3ncn(C(C)C)c3n2)C1`: the Ratio IC50 in the series listed under Homo sapiens is over 35. The compound further yielded an IC50 in series [2] of over 10000 nM. For the same compound, in “physchem [1]”, the logD amounted to 1.8.
For the compound `C=CC(=O)N[C@@H]1CN(c2nc(Nc3cn(C)nc3C)c3ncn(C(C)C)c3n2)C[C@H]1F`, the Ratio IC50 in the series listed under Homo sapiens was 56. In addition, the IC50 was found to be 1450 nM in series [2], 4 nM in series [3] and 16 nM in [4]. This compound also had a logD in “physchem [1]” of 2.6. Besides, the microsomal CLint at […], 1 µM in the series “in vitro [5]” was determined as 30 µL/min/mg.
In “physchem [1]”, `C=CC(=O)N[C@@H]1CN(c2nc(Nc3cn(C)nc3OC)c3nc[nH]c3n2)C[C@H]1F` registered a logD of 1.8. The compound further yielded a microsomal CLint at […], 1 µM in “in vitro [5]” of 8 µL/min/mg. Moreover, the Papp in the series “in vitro [6]” came out at 2 ×10⁻⁶ cm/s.
As to `C=CC(=O)Nc1cc2c(Nc3ccc(F)c(Cl)c3)ncnc2cc1OCCCN1CCOCC1` [CANERTINIB], in “physchem [7]”, the half-life at 2 h, 1 µM is 21 min.
In turn, `C=CC(=O)N[C@@H]1CN(c2nc(Nc3cn(C)nc3CC)c3ncn(C(C)C)c3n2)C[C@H]1F` showed a logD in “physchem [1]” of 3.5. Moreover, the microsomal CLint at […], 1 µM in “in vitro [5]” was 81 µL/min/mg.
On to `C=CC(=O)N1CC[C@@H](Nc2nc(Nc3ccc(N4CCN(C)CC4)cc3)c3ncn(C(C)C)c3n2)C1`, for which the Ratio IC50 in the series filed under Homo sapiens came to 13. Besides, the logD in the series “physchem [1]” is 2.5.
In the series “in vitro [6]”, `CC(C)C(CO)Nc1nc(Nc2ccc(N3CCNCC3)cc2)c2ncn(C(C)C)c2n1` (racemic) yielded a Papp of 1.9 ×10⁻⁶ cm/s.
In the case of `C=CC(=O)N[C@@H]1CCN(c2nc(Nc3cnn(C)c3)c3ncn(C(C)C)c3n2)C1`, the logD in the series “physchem [1]” amounted to 2.7.
`C=CC(=O)N[C@H]1CCN(c2nc(Nc3cnn(C)c3)c3ncn(C(C)C)c3n2)C1`: the Ratio IC50 in the series filed under Homo sapiens is 13. Besides, the logD in “physchem [1]” stood at 2.3.
For `C=CC(=O)N1C[C@@H]2CN(c3nc(Nc4cnn(C)c4)c4ncn(C(C)C)c4n3)C[C@@H]2C1`, in that order: 16 and 2.2.
On to `C=CC(=O)N[C@@H]1CN(c2nc(Nc3cn(C)nc3OC)c3ncn(C(C)C)c3n2)C[C@H]1F`, for which, in the series on Hepatocyte, the CLH stood at 23 µL/min/mg. The compound also displayed a logD in “physchem [1]” of 2.6. The microsomal CLint at […], 1 µM in the series “in vitro [5]” stood at 32 µL/min/mg. The compound further yielded a Papp in the series “in vitro [6]” of 18 ×10⁻⁶ cm/s.

As usually defined, the logD is lipophilicity at a set pH, counting ionised and neutral species. In general, IC50 refers to the concentration that inhibits the measured activity by half. Higher therefore signals a need for much substance. Usually microsomal CLint stands for a measure of how fast metabolising enzymes remove a compound, apart from limits set by blood flow. The low end stands for slow turnover, the high end for rapid turnover. A word on the Papp: it is a coefficient for how fast a substance crosses the barrier. A word on the half-life: it is the time needed for the level to fall by half in the phase considered. Read a low half-life as fast loss.
